In patent US8822503B2, “2-pyridone compounds” (Taisho Pharmaceutical Co., Ltd, priority 2009, dated 2014):

Molecular target: T1, human liver GK (Homo sapiens, UniProt P35557)
T1 construct: GST (glutathione S-transferase) (N); made in house; host or cells: E. coli
T1 sequence (P35557 1-466 isoform P35557-2): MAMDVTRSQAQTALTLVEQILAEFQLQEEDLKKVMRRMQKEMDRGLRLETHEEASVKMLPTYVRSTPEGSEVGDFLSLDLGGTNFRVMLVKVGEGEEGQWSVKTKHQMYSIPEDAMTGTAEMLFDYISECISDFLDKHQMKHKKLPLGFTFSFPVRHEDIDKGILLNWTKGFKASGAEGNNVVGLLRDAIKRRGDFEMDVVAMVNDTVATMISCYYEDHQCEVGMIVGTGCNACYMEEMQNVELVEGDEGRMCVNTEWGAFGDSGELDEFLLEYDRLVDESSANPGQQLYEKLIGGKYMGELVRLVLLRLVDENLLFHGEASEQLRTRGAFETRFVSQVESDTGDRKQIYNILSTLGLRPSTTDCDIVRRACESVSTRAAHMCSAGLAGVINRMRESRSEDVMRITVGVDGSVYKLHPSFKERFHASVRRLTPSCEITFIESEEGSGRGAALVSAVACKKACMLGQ
Test: GK activation test
Assay type: biochemical
Details: test compound concentration needed to activate 50% of maximum activation ability; 4 mM 14C-labeled glucose, 2 mM ATP, room temperature, 20 minutes
Outline: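 GST-tagged human liver GK from E. coli (0.24 μg/well) with 4 mM 14C-glucose, 2 mM ATP in Hepes-KOH pH 7.1, KCl, MgCl2, DTT, 1% DMSO, 20 min room temperature. Labeled glucose 6-phosphate captured on anion resin, eluted and counted. EC50 = concentration giving half of maximal activation.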

## CC(C)(C)c1ccc(/C(=C\CCN2CCCS2(=O)=O)c2ccc(Cl)c(=O)[nH]2)cc1 [Example 6-12, 6-[(1E)-1-(4-tert-Butylphenyl)-4-(1,1-dioxide-1,2-thiazolidin-2-yl)but-1-en-1-yl]-3-chloropyridin-2(1H)-one]
  EC50: 0.5 to 3 µM

## CC(C)(C)c1ccc(/C(=C\CCN2C(=O)CCC2=O)c2ccc(Cl)c(=O)[nH]2)cc1 [Example 6-13, 1-[(3E)-4-(4-tert-Butylphenyl)-4-(5-chloro-6-oxo-1,6-dihydropyridin-2-yl)but-3-en-1-yl]pyrrolidine-2,5-dione]
  EC50: 0.5 to 3 µM

## CC(C)(C)c1ccc(/C(=C\N2CCCC2=O)c2ccc(Cl)c(=O)[nH]2)cc1 [Example 6-14, 6-[(E)-1-(4-tert-Butylphenyl)-2-(2-oxopyrrolidin-1-yl)ethenyl]-3-chloropyridin-2(1H)-one]
  EC50: 0.5 to 3 µM

## CC(C)(C)c1ccc(/C(=C\C(=O)N2CCCC2)c2ccc(Cl)c(=O)[nH]2)cc1 [Example 6-15, 6-[(1E)-1-(4-tert-Butylphenyl)-3-oxo-3-(pyrrolidin-1-yl)prop-1-en-1-yl]-3-chloropyridin-2(1H)-one]
  EC50: 3 to 10 µM

## CN1CCN(C/C=C(\c2ccc(C(C)(C)C)cc2)c2ccc(Cl)c(=O)[nH]2)C1=O [Example 6-16, 6-[(1E)-1-(4-tert-Butylphenyl)-3-(3-methyl-2-oxoimidazolidin-1-yl)prop-1-en-1-yl]-3-chloropyridin-2(1H)-one]
  EC50: 0.01 to 0.5 µM

## CC(C)(C)c1ccc(/C(=C\CN2CCCCCCC2=O)c2ccc(Cl)c(=O)[nH]2)cc1 [Example 6-18, 1-[(2E)-3-(4-tert-Butylphenyl)-3-(5-chloro-6-oxo-1,6-dihydropyridin-2-yl)prop-2-en-1-yl]azocan-2-one]
  EC50: 3 to 10 µM

## CN1CCC(C/C=C(\c2ccc(C(C)(C)C)cc2)c2ccc(Cl)c(=O)[nH]2)C1=O (stereo not drawn) [Example 6-19, 6-[(1E)-1-(4-tert-Butylphenyl)-3-(1-methyl-2-oxopyrrolidin-3-yl)prop-1-en-1-yl]-3-chloropyridin-2(1H)-one]
  EC50: 0.5 to 3 µM

## O=C1CCCN1C/C=C(\c1ccc(S(=O)(=O)C2CC2)cc1)c1ccc(Cl)c(=O)[nH]1 [Example 6-20, 3-Chloro-6-[(1E)-1-[4-(cyclopropylsulfonyl)phenyl]-3-(2-oxopyrrolidin-1-yl)prop-1-en-1-yl]pyridin-2(1H)-one]
  EC50: 0.5 to 3 µM

## O=C1OCCN1C/C=C(\c1ccc(S(=O)(=O)C2CC2)cc1)c1ccc(Cl)c(=O)[nH]1 [Example 6-21, 3-Chloro-6-[(1E)-1-[4-(cyclopropylsulfonyl)phenyl]-3-(2-oxo-1,3-oxazolidin-3-yl)prop-1-en-1-yl]pyridin-2(1H)-one]
  EC50: 0.5 to 3 µM

## CC(C)c1ccc(/C(=C\CN2CCOC2=O)c2ccc(Cl)c(=O)[nH]2)cc1 [Example 6-22, 3-Chloro-6-{(1E)-3-(2-oxo-1,3-oxazolidin-3-yl)-1-[4-(propan-2-yl)phenyl]prop-1-en-1-yl}pyridin-2(1H)-one]
  EC50: 0.5 to 3 µM

## CC(C)(C)c1ccc(/C(=C\Cc2nc(=O)o[nH]2)c2ccc(Cl)c(=O)[nH]2)cc1 [Example 6-23, 6-[(1E)-1-(4-tert-Butylphenyl)-3-(5-oxo-2,5-dihydro-1,2,4-oxadiazol-3-yl)prop-1-en-1-yl]-3-chloropyridin-2(1H)-one]
  EC50: 3 to 10 µM

## CC(C)(C)c1ccc(/C(=C\CCO)c2ccc(Cl)c(=O)[nH]2)cc1 [Example 6-24, 6-[(1E)-1-(4-tert-Butylphenyl)-4-hydroxybut-1-en-1-yl]-3-chloropyridin-2(1H)-one]
  EC50: 3 to 10 µM

## CC(C)(C)c1ccc(/C(=C\CCN2CCCC2=O)c2ccc(Cl)c(=O)[nH]2)cc1 [Example 6-27, 6-[(1E)-1-(4-tert-Butylphenyl)-4-(2-oxopyrrolidin-1-yl)but-1-en-1-yl]-3-chloropyridin-2(1H)-one]
  EC50: 0.5 to 3 µM

## CC(C)(C)c1ccc(/C(=C\Cc2ccccc2)c2ccc(Cl)c(=O)[nH]2)cc1 [Example 6-28, 6-[(1E)-1-(4-tert-Butylphenyl)-3-phenylprop-1-en-1-yl]-3-chloropyridin-2(1H)-one]
  EC50: 0.5 to 3 µM

## Cn1ccc(=O)n(C/C=C(\c2ccc(C(C)(C)C)cc2)c2ccc(Cl)c(=O)[nH]2)c1=O [Example 6-31, 3-[(2E)-3-(4-tert-Butylphenyl)-3-(5-chloro-6-oxo-1,6-dihydropyridin-2-yl)prop-2-en-1-yl]-1-methylpyrimidine-2,4(1H, 3H)-dione]
  EC50: 0.5 to 3 µM

## CC(C)(C)c1ccc(/C(=C\Cn2cccnc2=O)c2ccc(Cl)c(=O)[nH]2)cc1 [Example 6-32, 1-[(2E)-3-(4-tert-Butylphenyl)-3-(5-chloro-6-oxo-1,6-dihydropyridin-2-yl)prop-2-en-1-yl]pyrimidin-2(1H)-one]
  EC50: 3 to 10 µM

## CC(C)(C)c1ccc(/C(=C\Cn2ncccc2=O)c2ccc(Cl)c(=O)[nH]2)cc1 [Example 6-33, 2-[(2E)-3-(4-tert-Butylphenyl)-3-(5-chloro-6-oxo-1,6-dihydropyridin-2-yl)prop-2-en-1-yl]pyridazin-3(2H)-one]
  EC50: 0.5 to 3 µM

## CC(C)(C)c1ccc(/C(=C\Cn2cnccc2=O)c2ccc(Cl)c(=O)[nH]2)cc1 [Example 6-34, 3-[(2E)-3-(4-tert-Butylphenyl)-3-(5-chloro-6-oxo-1,6-dihydropyridin-2-yl)prop-2-en-1-yl]pyrimidin-4(3H)-one]
  EC50: 0.5 to 3 µM

## CC(=O)NC/C=C(\c1ccc(C(C)(C)C)cc1)c1ccc(Cl)c(=O)[nH]1 [Example 6-35, N-[(2E)-3-(4-tert-Butylphenyl)-3-(5-chloro-6-oxo-1,6-dihydropyridin-2-yl)prop-2-en-1-yl]acetamide]
  EC50: 3 to 10 µM

## Cc1c[nH]n(C/C=C(\c2ccc(C(C)(C)C)cc2)c2ccc(Cl)c(=O)[nH]2)c1=O [Example 6-37, 6-[(1E)-1-(4-tert-Butylphenyl)-3-(4-methyl-5-oxo-2,5-dihydro-1H-pyrazol-1-yl)prop-1-en-1-yl]-3-chloropyridin-2(1H)-one]
  EC50: 0.5 to 3 µM

## O=c1[nH]c(C(OC2CCCC2)c2ccc(S(=O)(=O)C3CC3)cc2)ccc1C(F)(F)F (stereo not drawn) [Example 7-2, 6-{(Cyclopentyloxy)[4-(cyclopropylsulfonyl)phenyl]methyl}-3-(trifluoromethyl)pyridin-2(1H)-one]
  EC50: 3 to 10 µM

## O=c1[nH]c(C(Oc2ccc(F)cc2F)c2ccc(S(=O)(=O)C3CC3)cc2)ccc1C1CC1 (stereo not drawn) [Example 7-3, 3-Cyclopropyl-6-[[4-(cyclopropylsulfonyl)phenyl](2,4-difluorophenoxy)methyl]pyridin-2(1H)-one]
  EC50: 0.01 to 0.5 µM

## CC(C)(C)c1ccc(C(SC2CCCC2)c2ccc(Cl)c(=O)[nH]2)cc1 (stereo not drawn) [Example 7-4, 6-[(4-tert-Butylphenyl)(cyclopentylsulfanyl)methyl]-3-chloropyridin-2(1H)-one]
  EC50: 0.5 to 3 µM

## CC(C)(C)c1ccc(C(NC2CCCC2)c2ccc(Cl)c(=O)[nH]2)cc1 (stereo not drawn) [Example 7-5, 6-[(4-tert-Butylphenyl)(cyclopentylamino)methyl]-3-chloropyridin-2(1H)-one]
  EC50: 3 to 10 µM
